Target: T1, NapA (wild-type NapA, MVV) (Thermus thermophilus, UniProt Q72IM4)
T1 construct: gene TT_C1108; homodimer, 82,450 Da; in C8E4
Assay: native nESI-MS and tandem MS of protein-lipid complexes; ion mobility unfolding
Settings: detergent C8E4, ammonium acetate pH 7.5; annular, non-specific phospholipid binding

T1 sequence (Q72IM4 entry or part of it): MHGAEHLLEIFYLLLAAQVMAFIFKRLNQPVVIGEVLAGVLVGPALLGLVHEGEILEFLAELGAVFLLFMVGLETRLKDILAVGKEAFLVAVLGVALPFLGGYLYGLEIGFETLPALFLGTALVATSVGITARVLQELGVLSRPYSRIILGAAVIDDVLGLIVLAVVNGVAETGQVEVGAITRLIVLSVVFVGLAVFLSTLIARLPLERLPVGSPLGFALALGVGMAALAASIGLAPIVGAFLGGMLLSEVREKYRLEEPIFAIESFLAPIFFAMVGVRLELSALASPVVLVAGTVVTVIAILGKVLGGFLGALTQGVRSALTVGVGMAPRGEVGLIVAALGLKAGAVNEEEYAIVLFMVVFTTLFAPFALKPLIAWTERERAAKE

| SMILES | native nESI-MS and tandem MS of protein-lipid complexes; ion mobility unfolding |
| --- | --- |
| CCCCCCCC/C=C\CCCCCCCC(=O)O[C@H](COC(=O)CCCCCCCCCCCCCCC)COP(=O)(O)OCCN [PE, 1-palmitoyl-2-oleoyl-glycerophospho-ethanolamine] | NapA with PE show a concentration-dependent increase in the number of lipid adducts |
| CCCCCCCC/C=C\CCCCCCCC(=O)O[C@H](COC(=O)CCCCCCCCCCCCCCC)COP(=O)(O)OCC(O)CO (some centres unmarked) [PG, 1-palmitoyl-2-oleoyl-phosphatidyl-glycerol] | Interactions with negatively charged PG lipids exhibit higher gas-phase stabilities than with zwitterionic PE |

Reference: article PMC5234078, “Integrating mass spectrometry with MD simulations reveals the role of lipids in Na^+/H^+ antiporters” (Nature Communications, 2017)
